Assay results from patent US8901276B2, “Peptide reagents and methods for detection of colon dysplasia” (The Regents of the University of Michigan, priority 2010, dated 2014).
Where no end group is shown, it is not given here. The star is where a group is joined. FITC = O=C1OC2(c3ccc(O)cc3Oc3cc(O)ccc32)c2ccc(NC(=S)*)cc21

What was measured:
colonic adenomas = assay: In vivo imaging with multi-spectral scanning fiber endoscope; parameters: species or system CPC; Apc mice; conditions: for binding to colonic dysplasia/adenomas on fluorescence images / Average T/B: 100 μM topical, 5 min; for Average T/B: Multi-Spectral Scanning Fiber Endoscopy Results, mean ± SD; for range of T/B ratios: dysplasia versus normal appearing adjacent colonic mucosa
Source text: A scanning fiber endoscope system was adapted for fluorescence detection in three channels (RGB) using excitation at 440 (NDHB510APA, Nichia, Tokyo, Japan), 532 (FTEC532-V10TA0, Blue Sky Research, Milpitas, Calif.) and 635 (FMXL635-017TA0B, Blue Sky Research) nm using an RGB coupler (OZ Optics, Ottawa, Canada). The three laser sources are delivered simultaneously into the scanning fiber, and focused to the same point on the illumination plane using a custom lens assembly, as shown in the schematic in FIG. 2A. The laser power coming out of the distal tip of the endoscope is <2 mW for each channel, a level consistent with a non-significant risk (NSR) determination by the U.S. Food and Drug Administration (FDA, 21 CFR 812) for future human clinical studies. The amplitude of the spiral scanner was reduced to achieve a divergence angle of 70 deg (max 100 deg) to minimize noise in the periphery of the image. Fluorescence is collected by a ring of 12 step-index plastic optical fibers (POF) with numerical aperture (N.A.) of 0.63 and outer diameter of 250 μm (Toray Industries Inc, Tokyo, Japan).
(§1) The CPC;Apc mice were first imaged with white light using a non-scanning endoscope (Karl Storz Veterinary Endoscopy, Goleta, Calif.) to assess for the presence of colonic adenomas that have a size between ˜0.5 to 4 mm in diameter. Any adenomas were rinsed of debris including stool and mucous, by delivering tap water through a 3 Fr instrument channel. Then, the fluorescent-labeled peptides were delivered topically at a concentration of 100 μM in 1×PBS in a volume of 1 mL to the distal 4 cm of the colon and rectum. The peptides were incubated for 5 minutes and then the unbound peptides were rinsed away with tap water 3 times. The colon was inspected for any residual peptide, and when clean, the colon was insufflated with air and imaged with the multi-spectral scanning fiber endoscope.
Videos collected during endoscopy were exported as avi video files and converted into sequential png images using Apple QuickTime. White light and fluorescence images for each adenoma were analyzed in NIH Image J. The white light image was utilized to draw a region of interest (ROI) around the adenoma or adjacent normal appearing colonic mucosa which was then superimposed onto the fluorescence image. The mean fluorescence intensities were calculated for each ROI, and a target/background (T/B) ratio was calculated for each colonic adenoma and compared to the surrounding normal appearing mucosa.

normal colonic mucosa = assay: In vivo imaging with multi-spectral scanning fiber endoscope, normal mucosa; parameters: species or system mice; conditions: mouse
Method: as §1

HT29 cells [1] = assay: Flow cytometry of FITC-labeled peptides; format: cell-based, human; conditions: 10 μM, 60 min, 4° C., FITC channel
Method: (§2) Preferential binding of FITC-Peptide 2 to target cells was validated using flow cytometry. HT29 and Hs738.St/Int. (˜2×10^5) cells were grown, detached, and blocked as described above. These cells were incubated with the FITC-Peptide 2 or -Control peptide 2 (10 μM) for 60 min at 4° C. with continuous agitation. The cells were then washed (3×) with cold PBST followed by immediate fixing for 10 min. with 4% paraformaldehyde. The cells were washed again (1×) with PBS and resuspended in 1 mL of PBS. Flow cytometry was performed using FACSDiVa (BD® LSRII, BD Biosciences, San Jose, Calif.) and analyzed using Flowjo analysis program (Tree Star Inc., Ashland, Oreg.).
(§3) Preferential binding of the candidate peptide labeled with 5-FITC to the target and control cells was also validated using flow cytometry. HT29 and Hs738.St/Int. (˜2×10^5) cells were grown, detached, and blocked, as described above. These cells were incubated with the 5-FITC labeled candidate or control peptide (10 μM) for 60 min at 4° C. with continuous agitation. The cells were then washed 3× with cold PBST followed by immediate fixation for 10 min with 4% paraformaldehyde. The cells were washed again with PBS and resuspended in 1 mL of PBS. Flow cytometry was performed using FACSDiVa (BD® LSRII, BD Biosciences, San Jose, Calif.) and analyzed using Flowjo analysis program (Tree Star Inc. Ashland, Oreg.).

Hs738.St/Int. cells [2] = assay: Flow cytometry of FITC-labeled peptides; format: cell-based, human; conditions: 10 μM, 60 min, 4° C.
Method: as §2, §3

HT29 cells [3] = assay: Fluorescence microscopy of FITC-labeled peptides; format: cell-based, human; conditions: 10 μM, 15 min, 4° C.
Method: (§4) Preferential binding of the FITC-Peptide 2 and FITC-Control peptide 2 to target and non-target cells was also validated via fluorescence microscopy. HT29 and Hs738.St/Int. cells were grown in 22 mm2 cover slips with ˜80% confluence. Blocking of non-specific binding was performed by adding PBS/0.5% BSA for 30 min. The cells were then incubated with 10 μM of FITC-Peptide 2 or FITC-Control peptide 2 either at 4 or 37° C. for 15 min followed by 1 μg/mL Hoechst dye (Sigma Aldrich, St. Louis, Mo.) along with the peptide. The cells were washed with PBS for 3 times and fixed with 4% paraformaldehyde at room temperature for 10 min. After fixation, the cells were washed again with PBS (1×) and mounted with ProLong® Gold reagent (Invitrogen, Carlsbad, Calif.) and the fluorescence images were acquired with Leica Confocal system. (Leica Microsystems GMBH, Wetzlar, 35578 Germany)
In addition, the ability of the FITC-Peptide 2 peptide to internalize within the HT29 cells was tested. HT29 cells were incubated for 15 min. at either 4° C. or 37° C. in the presence of 10 μM FITC-Peptide 2.
(§5) Preferential binding of the FITC-labeled candidate and control peptides to the target and non-target cells was further validated via fluorescence microscopy. HT29 and Hs738.St/Int. cells were grown on cover slips to ˜80% confluence. Blocking of non-specific binding was performed by adding PBS/0.5% BSA for 30 min. The cells were then incubated with 10 μM of 5-FITC-labeled candidate or control peptide at either 4 or 37° C. for 15 min followed by staining with 1 μg/mL Hoechst dye (Sigma Aldrich, St. Louis, Mo.) along with the peptide. The cells were washed 3× with PBS and fixed with 4% paraformaldehyde at RT for 10 min. After fixation, the cells were washed again with PBS and mounted with ProLong Gold reagent (Invitrogen, Carlsbad, Calif.) and fluorescence images were collected with confocal microscopy (Leica TCS SP5 Microsystems, Bannockburn, Ill.).

Hs738.St/Int. cells [4] = assay: Fluorescence microscopy of FITC-labeled peptides; format: cell-based, human; conditions: 10 μM, 15 min
Method: as §4, §5

[5] = tested on: human colon surgical specimens (normal mucosa, dysplastic adenomas, carcinoma); assay: Binding of synthetic peptides to human surgical specimens of colon cancer (Example 9); conditions: 10 μM, 15 min, RT
Method: Fresh frozen sections from human surgical specimens were cryosectioned with […] and used to localize peptide binding. The sectioned tissues were air dried and washed with PBS 1×. Sections were incubated with FITC labeled peptides (10 μM) for 15 min at RT. The sections were washed three times each for 1 min in PBS and fixed with 4% paraformaldehyde for 10 min. After fixing, the sections were washed again (1×) and mounted with ProLong® Gold reagent with DAPI (Invitrogen, Carlsbad, Calif.). The sections were imaged under a confocal microscope ([…]). All surgical specimens were obtained from the tissue procurement core of University of Michigan with approval from the Institutional Review Board (IRB).

[6] = tested on: human colonic mucosa sections (normal, dysplasia, adenocarcinoma); assay: Peptide immunohistochemistry on frozen sections (Example 11); conditions: 10 μM, 15 min, RT
Method: All specimens were obtained with approval from the University of Michigan Institutional Review Board (IRB). Freshly resected specimens of human colonic mucosa were frozen in OCT and sectioned with 10 μm thickness. The sections were then air dried, washed with PBS, and incubated with the FITC-labeled peptides at a concentration of 10 μM for 15 min at RT. The sections were washed 3× for 1 min in PBS and fixed with 4% paraformaldehyde for 10 min. After fixation, the sections were washed again and mounted with ProLong Gold reagent with DAPI (Invitrogen, Carlsbad, Calif.). The sections were imaged under a confocal microscope (Leica TCS SP5 Microsystems, Bannockburn, Ill.). Adjacent sections were sent for routine histology. The intensity for each image was calculated using Matlab (Mathworks, Natick, Mass.).

HT29 cells [7] = assay: Competitive inhibition assay (bound phage counts); format: cell-based, human; conditions: up to 200 μM unlabeled peptide
Method: Bound phage counts were performed to observe the competitive inhibition effect of the synthetic candidate heptapeptide with its representative phage counterpart in triplicate. HT29 cells (5×10^6) were detached with enzyme free cell dissociation buffer and blocked with 1% BSA containing PBS for 30 min at 4° C. The cells were washed and incubated with phage (2×10^11) for 15 min. Then, the cells were washed with PBS and immediately incubated with different concentrations of unlabeled peptide ranging from 10 to 200 μM for an additional 15 min. Cells were washed 3× and the bound phages were recovered as described above in bound phage counts. The bound phages were then tittered and counted, and the relative inhibition rate was calculated. The inhibition activity of no-insert WT phage by synthetic candidate peptide and phage with unrelated synthetic control peptide were used as negative controls.

[8] = tested on: human EMR specimens (normal mucosa, polypoid and non-polypoid dysplasia); assay: Stereomicroscopic validation on EMR specimens; conditions: 10 μmol/L, 5 min, mean±SEM
Source text: Binding of the candidate or control peptide to the dysplasia on freshly resected human specimens via endoscopic mucosal resection (EMR) was validated on fluorescence stereomicroscopy. Patients with previously diagnosed polypoid and non-polypoid dysplasia who were referred for EMR were recruited. Institutional review board approval was obtained from the VA Palo Alto Health Care System, and informed consent was acquired. After resection, the specimens were rinsed in PBS 3× to remove debris and mucous. An autofluorescence image was acquired before incubating with the peptide. Then, specimens were incubated with either the FITC-labeled candidate or control peptide at a concentration of 10 μmol/L for 5 min. The unbound peptide was rinsed off with PBS 3×. The mucosal surface of the specimen was oriented face up, and a dab of ink was applied to the upper border as a landmark to register the white light and fluorescence images with histology. A white light image was collected from the specimen with and without an overlying transparent grid that contains squares with dimensions of 1×1 mm^2. Fluorescence images were collected at 500 milliseconds per frame (with the overlying grid removed) using a stereomicroscope (Olympus SZX-16 equipped with Rolera camera; Olympus Corp, Tokyo, Japan) using 477 to 500 nm excitation and 500 to 630 nm emission. A correction to the fluorescence images was performed because the intensity at the center of the image is greater than that in the periphery due to differences in distance. A fluorescence image was collected from a solution of 10 μM FITC in a plate to provide a uniform target for calibration, allowing for quantitative analysis over the entire field of view. After the fluorescence intensities were corrected, lines along the length of the specimen spaced by 2-mm intervals in each image were identified using the grid from the white light image. The mean intensity from each 1×1 mm^2 interval along this length of tissue was calculated using Matlab and compared with histology. Histopathologic interpretation was performed by a gastrointestinal pathologist (HA) who classified the specimens stained with H&E as normal colonic mucosa, dysplasia, or adenocarcinoma. The histopathologic evaluation of the EMR specimens was conducted at VA Palo Alto Health Care System (AM) and classified as either dysplasia or normal mucosa.

| Substance | binding to colonic dysplasia/adenomas on fluorescence images (colonic adenomas) | Average T/B (colonic adenomas) | range of T/B ratios (colonic adenomas) | signal on normal colonic mucosa (normal colonic mucosa) | total HT29 cell population bound (HT29 cells [1]) [%] | total HT29 cell population bound (HT29 cells [1]; listed as control peptide) [%] | binding to Hs738.St/Int. cells on flow cytometry (Hs738.St/Int. cells [2]) | binding to the surface of HT29 cells (HT29 cells [3]) | binding to Hs738.St/Int. cells on microscopy (Hs738.St/Int. cells [4]) | binding to specimens classified from normal to carcinoma [5] | staining of any specimen (normal, dysplasia, adenocarcinoma) [6] | inhibition of KCCFPAQ phage binding to HT29 cells (HT29 cells [7]) | fluorescence intensity on stereomicroscopy ([8]; non-polypoid dysplasia) [AU] | fluorescence intensity on stereomicroscopy ([8]; normal mucosa) [AU] | fluorescence intensity on stereomicroscopy ([8]; polypoid dysplasia) [AU] |
| --- | --- | --- | --- | --- | --- | --- | --- | --- | --- | --- | --- | --- | --- | --- | --- |
| AKPGYLS-TAMRA: AKPGYLS labeled with 5-Carboxytetramethylrhodamine (TAMRA) (also: TAMRA label, site not given here) | clearly displayed specific binding | 1.67±0.12 | 1.50-1.78 | minimal signal |  |  |  |  |  |  |  |  |  |  |  |
| GGGAGGGAGGGK (FITC)-NH2 (GGGAGGGAGGGK(FITC)-NH2; N-terminus assumed; SMILES C[C@H](NC(=O)CNC(=O)CNC(=O)CN)C(=O)NCC(=O)NCC(=O)NCC(=O)N[C@@H](C)C(=O)NCC(=O)NCC(=O)NCC(=O)N[C@@H](CCCCNC(=S)Nc1ccc2c(c1)C(=O)OC21c2ccc(O)cc2Oc2cc(O)ccc21)C(N)=O) [FITC-Control peptide 2, glycine/alanine control peptide, reference compound] |  |  |  |  | 18.6 | 2.3 | bound minimally | did not bind | did not bind | not able to bind with any of the specimens | did not stain any of the specimens | No inhibition | 21.8±4.1 | 16.5±2.5 | 14.0±3.0 |
| KCCFPAQ-DEAC: KCCFPAQ labeled with 7-Diethylaminocoumarin-3-carboxylic acid (DEAC) (cysteine pairing not given here; also: DEAC label, place not given here) | clearly displayed specific binding | 1.71±0.19 | 1.50-2.06 | minimal signal |  |  |  |  |  |  |  |  |  |  |  |
